Assay results: patent US7250423B2, “Methods for synthesizing heterocycles and therapeutic use of the heterocycles for cancers” (priority 2001, dated 2007)

Key:
Type in all cases: cell-based, human
MCF7 (Breast) = assay: 3-cell line, one dose primary anticancer assay (NCI); details: 1.000E−04 Molar, 48 hours, percent of growth vs untreated control cells; negative numbers indicate cell kill
Experimental: (§1) The following cell culture tests were performed by the National Cancer Institute of the National Institute of Health. The compounds listed below have been evaluated in the 3-cell line, one dose primary anticancer assay. The compounds which pass our criteria for activity in this assay will be scheduled automatically for evaluation against the full panel of 60 tumor cell lines. For the past 10 years, the Development Therapeutic Program (DTP), Division of Cancer Treatment and Diagnosis (DCTD), National Cancer Institute (NCI) has used an in vitro model consisting of 60 human tumor cell lines as the primary anticancer screen [Ref: J. Natl, Cancer Inst., 83:757-766, 1991].
(§2) 95% of the actives from the 60 cell line screen can be identified using only three cell lines. For this reason, the DTP has now begun using, as its primary anticancer assay, a 3-cell line panel consisting of the MCF7 (Breast), NCI-H460 (Lung), and SF-268 (CNS). This 3-cell line, one-dose assay has been in use by DTP for several years for the evaluation of combinatorial libraries and has proven to be an effective pre-screen.
(§3) In the current protocol, each cell line is inoculated and preincubated on a microtiter plate. Test agents are then added at a single concentration and the culture incubated for 48 hours. End-point determinations are made with alamar blue (Biotechniques 21(5) 780-782 (1996)). Results for each test agent are reported as the percent of growth of the treated cells when compared to the untreated control cells. Compounds which reduce the growth of any one of the cell lines to approximately 32% or less (negative numbers indicate cell kill) are passed on for evaluation in the full panel of 60 cell lines over a 5-log dose range.

SF-268 (CNS) = assay: as above; details: 1.000E−04 Molar, 48 hours, percent of growth vs untreated control cells; negative numbers indicate cell kill
Experimental: as §1, §2, §3

[1] = test system: NCI-H460 (Non Small Cell Lung); assay: as above; details: 1.000E−04 Molar, 48 hours, percent of growth vs untreated control cells; negative numbers indicate cell kill
Experimental: as §1, §2, §3

[2] = test system: NCI-H522 (non-samll cell lung cancer); assay: 60 cell-line tests
Experimental: as §1, §3

HCT (colon cancer) = assay: 60 cell-line tests
Experimental: as §1, §3

Delta cancer cell lines = assay: 60 cell-line tests
Experimental: as §1, §3

CAKI-1 (renal cancer) = assay: 60 cell-line tests
Experimental: as §1, §3

PC-3 (prostate cancer) = assay: 60 cell-line tests
Experimental: as §1, §3

[3] = test system: CCRF-CEM (and other leukemia cancer cells); assay: 60 cell-line tests
Experimental: as §1, §3

[4] = test system: MDA-MB-435 (breast cancer); assay: 60 cell-line tests; details: even at 1.000E-08 molar concentration
Experimental: as §1, §3

DU-145 (prostate cancer) = assay: 60 cell-line tests; details: even at 1.000E-08 molar concentration
Experimental: as §1, §3

SF-539 (CNS cancer) = assay: 60 cell-line tests; details: even at 1.000E-08 molar concentration
Experimental: as §1, §3

[5] = test system: EKVX (non-small cell lung cancer); assay: 60 cell-line tests; details: even at 1.000E-08 molar concentration
Experimental: as §1, §3

other cell lines = assay: 60 cell-line tests; details: other cell lines of the 60 cell-line panel
Experimental: as §1, §3

CN(C)c1ccc2c(c1)C1OCCC1C(CCCO)N2 (stereo not shown) [3-3, 2,3,3a,4,5,9b-hexahydro-4-(3-hydroxypropyl)-8-dimethylamino-furano[3,2-c]quinoline]
Growth Percentage (Breast) MCF7 (MCF7 (Breast)): 7%
Growth Percentage (CNS) SF-268 (SF-268 (CNS)): 77%
Growth Percentage (Non Small Cell Lung) NCI-H460 [1]: 100%

OCCCCC1Nc2ccc(O)cc2C2OCCCC12 (stereo not shown) [5-1, 3,4,4a,5,6,10b-hexahydro-5-(4-hydroxybutyl)-9-hydroxy-2H-pyrano[3,2-c]quinoline]
Growth Percentage (Breast) MCF7 (MCF7 (Breast)): 0%
Growth Percentage (CNS) SF-268 (SF-268 (CNS)): 2%
Growth Percentage (Non Small Cell Lung) NCI-H460 [1]: 29%
selectivity for cancer cells [2]: moderately selective
selectivity for cancer cells (HCT (colon cancer)): moderately selective
selectivity for cancer cells (Delta cancer cell lines; Delta cancer): highly selective
selectivity for cancer cells (CAKI-1 (renal cancer)): moderately selective
selectivity for cancer cells (PC-3 (prostate cancer)): highly selective
selectivity for cancer cells [3]: moderately selective

OCCCCC1Nc2ccc(Nc3ccccc3)cc2C2OCCCC12 (stereo not shown) [3-1, 3,4,4a,5,6,10b-hexahydro-5-(4-hydroxybutyl)-9-phenylamino-2H-pyrano[3,2-c]quinoline]
Growth Percentage (Breast) MCF7 (MCF7 (Breast)): −1%
Growth Percentage (CNS) SF-268 (SF-268 (CNS)): −1%
Growth Percentage (Non Small Cell Lung) NCI-H460 [1]: −1%
killing of cancer cells [4]: highly potent and selectively killed
killing of cancer cells (DU-145 (prostate cancer)): highly potent and selectively killed
killing of cancer cells (SF-539 (CNS cancer)): highly potent and selectively killed
killing of cancer cells (Delta cancer cell lines; Delta cancer cell lines, even at 1.000E-08 molar concentration): highly potent and selectively killed
killing of cancer cells [5]: highly potent and selectively killed
killing of cancer cells (PC-3 (prostate cancer); even at 1.000E-08 molar concentration): highly potent and selectively killed
effect against other cell lines (other cell lines): very week effect

6,6a,7,8-tetrahydro-7-(2-o-hydroxyphenyl)ethyl-2H-benzopyrano[3,2-a]quinoline [4-1]
Growth Percentage (Breast) MCF7 (MCF7 (Breast)): 0%
Growth Percentage (CNS) SF-268 (SF-268 (CNS)): 0%
Growth Percentage (Non Small Cell Lung) NCI-H460 [1]: 0%

OCCCC1Nc2ccc(Nc3ccccc3)cc2C2OCCC12 (stereo not shown) [3-2, 2,3,3a,4,5,9b-hexahydro-4-(3-hydroxypropyl)-8-phenylamino-furano[3,2-c]quinoline]
Growth Percentage (Breast) MCF7 (MCF7 (Breast)): 0%
Growth Percentage (CNS) SF-268 (SF-268 (CNS)): 22%
Growth Percentage (Non Small Cell Lung) NCI-H460 [1]: 57%
